The results in this text go back to patent publication US10519152B2, “Compounds and their use in treating cancer” (AstraZeneca AB, priority 2017, dated 2019).

Assay [1] concerns the target T1, Estrogen Receptor (ERα) in MCF-7 human ductal carcinoma breast cell line (Homo sapiens, UniProt P03372).
T1 construct: endogenous in cells; host or cells: MCF-7
T1 sequence (P03372 1-595): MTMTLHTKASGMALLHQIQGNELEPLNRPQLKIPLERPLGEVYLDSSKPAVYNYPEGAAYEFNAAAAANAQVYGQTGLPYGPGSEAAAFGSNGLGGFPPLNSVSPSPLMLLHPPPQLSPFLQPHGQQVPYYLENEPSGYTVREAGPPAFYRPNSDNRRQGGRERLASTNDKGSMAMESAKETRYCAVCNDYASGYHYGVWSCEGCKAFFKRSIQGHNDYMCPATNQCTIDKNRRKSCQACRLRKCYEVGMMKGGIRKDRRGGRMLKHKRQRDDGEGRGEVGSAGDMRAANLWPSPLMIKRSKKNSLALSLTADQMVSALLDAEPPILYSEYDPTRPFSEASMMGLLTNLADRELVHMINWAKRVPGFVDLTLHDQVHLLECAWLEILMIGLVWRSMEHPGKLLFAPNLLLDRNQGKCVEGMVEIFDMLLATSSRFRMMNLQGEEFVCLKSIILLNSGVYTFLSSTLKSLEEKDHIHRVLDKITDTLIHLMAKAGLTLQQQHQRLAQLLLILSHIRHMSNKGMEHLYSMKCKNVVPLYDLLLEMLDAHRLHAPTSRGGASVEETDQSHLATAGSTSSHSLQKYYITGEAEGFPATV
Nature of the assay: MCF-7 ER degradation assay (cell based immuno-fluorescence). The settings on record: MCF-7 cells; for DC50: 18-22 hours incubation, 50% reduction of ERα expression, single experiment or average of two or more, read-out: MCF-7 ER degradation IC50. On the procedure:
MCF-7 ER Degradation Assay
The ability of compounds to down-regulate Estrogen Receptor (ER) numbers was assessed in a cell based immuno-fluorescence assay using the MCF-7 human ductal carcinoma breast cell line. MCF-7 cells were revived directly from a cryovial (approx 5×10^6 cells) in Assay Medium (phenol red free Dulbecco's Modified Eagle's medium (DMEM); Sigma D5921) containing 2 mM L-Glutamine and 5% (v/v) Charcoal/Dextran treated foetal calf serum. Cells were syringed once using a sterile 18 G×1.5 inch (1.2×40 mm) broad gauge needle and cell density was measured using a Coulter Counter (Beckman). Cells were further diluted in Assay Medium to a density of 3.75×10^4 cells per mL and 40 μL per well added to transparent bottomed, black, tissue culture-treated 384 well plates (Costar, No. 3712) using a Thermo Scientific Matrix WellMate or Thermo Multidrop. Following cell seeding, plates were incubated overnight at 37° C., 5% CO2 (Liconic carousel incubator). Test data was generated using the LabCyte Echo™ model 555 compound reformatter which is part of an automated workcell (Integrated Echo 2 workcell). Compound stock solutions (10 mM) of the test compounds were used to generate a 384 well compound dosing plate (Labcyte P-05525-CV1). 40 μL of each of the 10 mM compound stock solutions was dispensed into the first quadrant well and then 1:100 step-wise serial dilutions in DMSO were performed using a Hydra II (MATRIX UK) liquid handling unit to give 40 μL of diluted compound into quadrant wells 2 (0.1 mM), 3 (1 μM) and 4 (0.01 μM), respectively. 40 μL of DMSO added to wells in row P on the source plate allowed for DMSO normalisation across the dose range. To dose the control wells 40 μL of DMSO was added to row O1 and 40 μL of 100 μM fulvestrant in DMSO was added to row O3 on the compound source plate.
The Echo uses acoustic technology to perform direct microplate-to-microplate transfers of DMSO compound solutions to assay plates. The system can be programmed to transfer volumes as low as 2.5 nL in multiple increments between microplates and in so doing generates a serial dilution of compound in the assay plate which is then back-filled to normalise the DMSO concentration across the dilution range. Compounds were dispensed onto the cell plates with a compound source plate prepared as above producing a 12 point duplicate […] dose range with 3-fold dilutions and one final 10-fold dilution using the Integrated Echo 2 workcell. The maximum signal control wells were dosed with DMSO to give a final concentration of 0.3%, and the minimum signal control wells were dosed with fulvestrant to give a final concentration of 100 nM accordingly. Plates were further incubated for 18-22 hours at 37° C., 5% CO2 and then fixed by the addition of 20 μL of 11.1% (v/v) formaldehyde solution (in phosphate buffered saline (PBS)) giving a final formaldehyde concentration of 3.7% (v/v). Cells were fixed at room temperature for 20 mins before being washed two times with 250 μL PBS/Proclin (PBS with a Biocide preservative) using a BioTek platewasher, 40 μL of PBS/Proclin was then added to all wells and the plates stored at 4° C. The fixing method described above was carried out on the Integrated Echo 2 workcell. Immunostaining was performed using an automated AutoElisa workcell. The PBS/Proclin was aspirated from all wells and the cells permeabilised with 40 μL PBS containing 0.5% Tween™ 20 (v/v) for 1 hour at room temperature. The plates were washed three times in 250 μL of PBS/0.05% (v/v) Tween 20 with Proclin (PBST with a Biocide preservative) and then 20 μL of ERα (SP1) Rabbit monoclonal antibody (Thermofisher) 1:1000 in PBS/Tween™/3% (w/v) Bovine Serum Albumin was added. The plates were incubated overnight at 4° C. (Liconic carousel incubator) and then washed three times in 250 μL of PBS/0.05% (v/v) Tween™ 20 with Proclin (PBST). […]

Assay [2] concerns the target T2, recombinant human Estrogen Receptor alpha ligand binding domain, residues 307-554 (ER alpha-LBD (GST)) (Homo sapiens, UniProt P03372).
T2 construct: made in house
T2 sequence (P03372 307-554): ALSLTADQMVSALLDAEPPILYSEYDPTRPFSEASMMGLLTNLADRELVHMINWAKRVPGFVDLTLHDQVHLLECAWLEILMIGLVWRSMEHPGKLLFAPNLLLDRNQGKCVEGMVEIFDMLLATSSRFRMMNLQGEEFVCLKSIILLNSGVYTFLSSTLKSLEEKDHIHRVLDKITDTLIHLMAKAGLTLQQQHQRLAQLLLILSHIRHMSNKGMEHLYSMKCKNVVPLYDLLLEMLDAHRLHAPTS
Nature of the assay: ERα binding assay (LanthaScreen TR-FRET competition). The settings on record: TR-FRET competition with Fluormone ES2 tracer, 4 hours at room temperature; single experiment or average of two or more. On the procedure:
The ability of compounds to bind to isolated Estrogen Receptor Alpha Ligand binding domain (ER alpha-LBD (GST)) was assessed in competition assays using a LanthaScreen™ Time-Resolved Fluorescence Resonance Energy Transfer (TR-FRET) detection end-point. For the LanthaScreen TR-FRET endpoint, a suitable fluorophore (Fluormone ES2, ThermoFisher, Product code P2645) and recombinant human Estrogen Receptor alpha ligand binding domain, residues 307-554 (expressed and purified in-house) were used to measure compound binding. The assay principle is that ER alpha-LBD (GST) is added to a fluorescent ligand to form a receptor/fluorophore complex. A terbium-labelled anti-GST antibody (Product code PV3551) is used to indirectly label the receptor by binding to its GST tag, and competitive binding is detected by a test compound's ability to displace the fluorescent ligand, resulting in a loss of TR-FRET signal between the Tb-anti-GST antibody and the tracer. The assay was performed as follows with all reagent additions carried out using the Beckman Coulter BioRAPTR FRD microfluidic workstation: • 1. Acoustic dispense 120 nL of the test compound into a black low volume 384 well assay plates. • 2. Prepare 1×ER alpha-LBD/Tb-antiGST Ab in ES2 screening buffer and incubate for 15 minutes. • 3. Dispense 6 μL of the […] reagent into each well of the assay plate followed by 6 μL of Fluorophore reagent into each well of the assay plate • 4. Cover the assay plate to protect the reagents from light and evaporation, and incubate at room temperature for 4 hours. • 5. Excite at 337 nm and measure the fluorescent emission signal of each well at 490 nm and 520 nm using the BMG PheraSTAR.
Compounds were dosed directly from a compound source microplate containing serially diluted compound (4 wells containing 10 mM, […] and 10 nM final compound respectively) to an assay microplate using the Labcyte Echo 550. The Echo 550 is a liquid handler that uses acoustic technology to perform direct microplate-to-microplate transfers of DMSO compound solutions and the system can be programmed to transfer multiple small nL volumes of compound from the different source plate wells to give the desired serial dilution of compound in the assay which is then back-filled to normalise the DMSO concentration across the dilution range.
In total 120 nL of compound plus DMSO were added to each well and compounds were tested in a 12-point concentration response format over a final compound concentration range of 10, 2.917, 1.042, 0.2083, 0.1, 0.0292, 0.0104, 0.002083, 0.001, 0.0002917, 0.0001042, and 0.00001 μM respectively. TR-FRET dose response data obtained with each compound was exported into a suitable software package (such as Origin or Genedata) to perform curve fitting analysis. Competitive ER alpha binding was expressed as an IC50 value. This was determined by calculation of the concentration of compound that was required to give a 50% reduction in tracer compound binding to ER alpha-LBD.

As for `CC(=O)O[C@@H]1C[C@@H](C(=O)NCc2ccc(-c3scnc3C)cc2)N(C(=O)[C@@H](NC(=O)COCCCCCCOc2cc(F)c([C@@H]3c4[nH]c5ccccc5c4C[C@@H](C)N3CC(C)(C)F)c(F)c2)C(C)(C)C)C1` [Example 52, (3R,5S)-1-((S)-2-(2-((6-(3,5-difluoro-4-((1R,3R)-2-(2-fluoro-2-methylpropyl)-3-methyl-2,3,4,9-tetrahydro-1H-pyrido[3,4-b]indol-1-yl)phenoxy)hexyl)oxy)acetamido)-3,3-dimethylbutanoyl)-5-((4-(4-methylthiazol-5-yl)benzyl)carbamoyl)pyrrolidin-3-yl acetate], the DC50 in assay [1] amounted to 2.1 nM. For the same compound, in assay [2], the IC50 came to 1.1 nM.
Regarding `Cc1ncsc1-c1ccc(CNC(=O)[C@@H]2C[C@@H](O)CN2C(=O)[C@@H](NC(=O)COCCCOCCOc2cc(F)c([C@@H]3c4[nH]c5ccccc5c4C[C@@H](C)N3CC(C)(C)F)c(F)c2)C(C)(C)C)cc1` [Example 25, (2S,4R)-1-((S)-2-(2-(3-(2-(3,5-Difluoro-4-((1R,3R)-2-(2-fluoro-2-methylpropyl)-3-methyl-2,3,4,9-tetrahydro-1H-pyrido[3,4-b]indol-1-yl)phenoxy)ethoxy)propoxy)acetamido)-3,3-dimethylbutanoyl)-4-hydroxy-N-(4-(4-methylthiazol-5-yl)benzyl)pyrrolidine-2-carboxamide], the “ER degradation ≥ 90% at 0.3 μM” value in assay [1] (0.3 μM, ER degradation by fulvestrant at 0.3 μM is defined as 100%) is “••”. Besides, the IC50 in assay [2] amounted to 0.5 nM.
In the case of `Cc1ncsc1-c1ccc(CNC(=O)[C@@H]2C[C@@H](O)CN2C(=O)[C@@H](NCc2ccc(COc3cc(F)c([C@@H]4c5[nH]c6ccccc6c5C[C@@H](C)N4CC(C)(C)F)c(F)c3)cc2)C(C)(C)C)cc1` [Example 35, (2S,4R)-1-((S)-2-((4-((3,5-difluoro-4-((1R,3R)-2-(2-fluoro-2-methylpropyl)-3-methyl-2,3,4,9-tetrahydro-1H-pyrido[3,4-b]indol-1-yl)phenoxy)methyl)benzyl)amino)-3,3-dimethylbutanoyl)-4-hydroxy-N-(4-(4-methylthiazol-5-yl)benzyl)pyrrolidine-2-carboxamide], the DC50 in assay [1] is 9.1 nM. For the same compound, the IC50 in assay [2] amounted to 1 nM.
For `Cc1ncsc1-c1ccc(CNC(=O)[C@@H]2C[C@@H](O)CN2C(=O)[C@@H](NC(=O)COCCOCCOCCOc2cc(F)c([C@@H]3c4[nH]c5ccccc5c4C[C@@H](C)N3C[C@H](C)C(=O)O)c(F)c2)C(C)(C)C)cc1` [Example 30, (S)-3-((1R,3R)-1-(2,6-Difluoro-4-(((S)-13-((2S,4R)-4-hydroxy-2-((4-(4-methylthiazol-5-yl)benzyl)carbamoyl)pyrrolidine-1-carbonyl)-14,14-dimethyl-11-oxo-3,6,9-trioxa-12-azapentadecyl)oxy)phenyl)-3-methyl-1,3,4,9-tetrahydro-2H-pyrido[3,4-b]indol-2-yl)-2-methylpropanoic Acid] the same measures were 174 nM and 4.1 nM.
For `Cc1ncsc1-c1ccc(CNC(=O)[C@@H]2C[C@@H](O)CN2C(=O)[C@@H](NC(=O)CCCCCNCCCCOc2cc(F)c([C@@H]3c4[nH]c5ccccc5c4C[C@@H](C)N3CC(C)(C)F)c(F)c2)C(C)(C)C)cc1` [Example 145, (2S,4R)-1-((S)-2-(6-((4-(3,5-Difluoro-4-((1R,3R)-2-(2-fluoro-2-methylpropyl)-3-methyl-2,3,4,9-tetrahydro-1H-pyrido[3,4-b]indol-1-yl)phenoxy)butyl)amino)hexanamido)-3,3-dimethylbutanoyl)-4-hydroxy-N-(4-(4-methylthiazol-5-yl)benzyl)pyrrolidine-2-carboxamide] the same measures were 2.7 nM and 1.1 nM.
